Data taken from patent US20250120905A1, “THERAPEUTIC AGENTS TARGETING THE LYMPHATIC SYSTEM” (VIVASOR, INC, priority 2021, published 2025).

How the values were obtained:
[1] = system: patients with moderately to severely active Rheumatoid Arthritis (RA); assay: Phase 1b study of Enbrel administered by SOFUSA: DAS28 (ESR/CRP) disease activity scores; format: in vivo, human; details: Patient 01-004; SOFUSA Enbrel 25 mg once weekly; indicative of remission
[2] = system: patients with moderately to severely active Rheumatoid Arthritis (RA); assay: Phase 1b study of Enbrel administered by SOFUSA: tender and swollen joint counts; format: in vivo, human
Excerpt: (§1) An exemplary Sofusa Lymphatic Delivery System (SOFUSA) was designed to access the lymphatic system directly through the skin at the epidermal/dermal boundary (See FIG. 1) such that the infusion accessed afferent lymphatic capillaries when employed as described in Examples 2 and 3, below. The exemplary SOFUSA system was comprised of a microneedle device (see, e.g., FIG. 3A) and a syringe pump configured to administer anti-arthritic therapeutic agent, such as Enbrel, into the lymphatic circulation through the skin. This configuration was optimized to provide flow rates and pharmacokinetics using lymphatic anti-arthritic drug delivery in early phase clinical trials. The exemplary SOFUSA device was attached to the body of subjects via an attachment system that domed the skin upwards for consistent microneedle penetration, and a nylon strap with Velcro® that comfortably held the device down on the skin, keeping the microneedles in position until the dosing was complete (See, e.g., FIG. 2). Dose volume and infusion rate were set with an infusion pump (See, e.g., FIG. 2).
(§2) SOFUSA microneedles were arranged into an array and placed on the skin using a mechanical impact applicator. A solution comprising Enbrel at a concentration of approximately 50 milligrams per milliliter (50 mg/mL) was then administered at a controlled infusion rate into the device, through the microneedles and into the skin using an external syringe pump. The solution comprising Enbrel was delivered into the body at an infusion rate of 0.5 milliliters per hour (mL/hr), which corresponded to an infusion period of one hour to deliver a 25 mg dose and 2 hours to deliver a 50 mg dose.
(§3) In this ongoing Phase 1b study, 25 mg of Enbrel (50% of the non-SOFUSA delivered subcutaneous dose) was administered lymphatically once weekly via SOFUSA to patients for 12 weeks. The study design calls for an increase in the SOFUSA-administered Enbrel dose to 50 mg during the dose escalation phase of the study (weeks 4-8) provided that dose escalation criteria are met. Patients remain on either the 25 mg or 50 mg dose for the final maintenance phase of the study. The dose escalation criteria for the Enbrel dose to be increased from 25 mg to 50 mg are: a DAS28 (ESR)≥3.2 and an increase in DAS28 (ESR)>0.6 compared to baseline.
(§4) Patients entered in the study had been treated with subcutaneous Enbrel with or without continuation of MTX, and have had either a primary (lack of sufficient efficacy with initial treatment) or secondary (initial efficacy but became inefficacious over time) inadequate response with the maximum approved dose of Enbrel. […] To the extent that inadequate response to Enbrel in some patients may be due to insufficient Enbrel levels in target lymphoid tissues or an inadequate immunologic response, Enbrel administered into the lymphatic system via SOFUSA was therefore theorized to provide a favorable clinical response despite an inadequate response to subcutaneous Enbrel administration.
(§5) This patient received SOFUSA-administered Enbrel at a 25 mg dosage once weekly for 12 weeks. Each week, SOFUSA was applied to the dorsal forearm with alternating left and right arm locations and the SOFUSA-administered Enbrel solution was infused through the skin into the lymphatic circulation for one hour.
Joint counts were performed every 2 weeks. There was observed a consistent decrease in the number of tender and swollen joints using both 66/68 and 28 joint count criteria for the entire 12-week dosing period (See FIG. 5A and FIG. 5B, respectively).

[3] = system: patients with moderately to severely active Rheumatoid Arthritis (RA); assay: Phase 1b study of Enbrel administered by SOFUSA: DAS28 (ESR/CRP) disease activity scores; format: in vivo, human; details: Patient ID 01-002
Excerpt: as §1, §2, §3, §4, §5
Disease Activity Scores (DAS) 28 (DAS28) DAS28) were calculated based on 28 tender and swollen joints, Patient Global Assessment of Disease Activity, and C-Reactive Protein (CRP) or Erythrocyte Sedimentation Rate (ESR). DAS28 (ESR) and DAS28 (CRP) scores for Patient ID 01-002 are shown in FIG. 4A and FIG. 4B, respectively.

[4] = system: patients with moderately to severely active Rheumatoid Arthritis (RA); assay: Phase 1b study of Enbrel administered by SOFUSA: patient/physician disease activity and pain Visual Analog Scale; format: in vivo, human; details: for Patient Assessment of Pain (VAS) decrease / Patient Global Assessment of Disease Activity (VAS) decrease / Physician Global Assessment of Disease Activity (VAS) decrease: SOFUSA Enbrel 25 mg once weekly for 12 weeks
Excerpt: as §1, §2, §3, §4, §5
Ratings were performed by each patient and physician on a Visual Analog Scale (VAS) every 2 weeks for disease activity (patient and physician) and disease-related pain (patient). […] In addition, the Patient Assessment of Pain for Patient ID 01-002 decreased from 46 mm at week 0 to 29 mm at week 12 (i.e., 37.0% decrease). The Physician Global Assessment of Disease Activity for Patient ID 01-002 decreased substantially from 50 mm at week 0 to 15 mm at week 12, corresponding to a 70.0% decrease in disease activity.

[5] = system: patients with RA; details: cited from earlier work
[6] = system: local lymphatic function; assay: Near-Infrared Fluorescence (NIRF) lymphatic imaging with Indocyanine Green; format: in vivo, human
Experimental: The local lymphatic function was measured using Near-Infrared Fluorescence (NIRF) imaging techniques with Indocyanine Green (ICG) at the beginning, at 6 weeks, and at the end of the study. […] The ICG was delivered at the opposite arm location as the Enbrel dosing.
In this regard, it has been speculated that lymphatic dysfunction may encourage the development of rheumatic autoimmune diseases such as scleroderma, lupus, and rheumatoid arthritis (see, e.g., Aletaha, D., et al., Ann. Rheum. Dis., 75, 1479-1485 (2016)). […] NIRF imaging of the lymphatics after infusion of a solution of ICG at the beginning, middle and end of the study. NIRF imaging was used to assess lymphatic pumping in RA patients before and after treatment with SOFUSA with Enbrel. Additionally, the imaging provided a visualization of the lymphatic vessels and was intended to confirm that SOFUSA delivers ICG solution directly into the lymphatics.

[7] = Etanercept lymph node concentrations after IV, SC, ID or lymphatic (Sofusa) delivery; format: in vivo; details: for etanercept concentration in lymph nodes, lymphatic (Sofusa) vs IV administration: percentage initial dose per gram of lymph tissue
Experimental: Etanercept was administered to subjects either via intravenous (IV), subcutaneous (SC), Intradermal (ID), or lymphatic (Sofusa) delivery. Average etanercept concentrations (expressed as percentage initial dose per gram of lymph tissue) in lymph node tissue was then determined at twelve and 36 hours post-administration. […] In particular, etanercept concentrations at 12 hours post lymphatic (Sofusa) administration were approximately 40-fold greater, and approximately 9-fold greater at 36 hours, than etanercept concentrations administered via IV.
Methods and procedures for some of these experiments have been adapted from Aldrich, et al., Arthritis Res. Ther., (2017), 19:116 (DOI 10.1186/s13075-017-1323-z; Open Access) which is incorporated by reference herein in its entirety for all purposes.

[8] = system: patients with moderately to severely active Rheumatoid Arthritis (RA); assay: Phase 1b study of Enbrel administered by SOFUSA: ACR response; format: in vivo, human; details: week 10 vs baseline (week 0); Patient 01-002 and Patient 01-004; SOFUSA Enbrel 25 mg once weekly
Excerpt: as §1
SOFUSA microneedles were arranged into an array and placed on the skin using a mechanical impact applicator. […]

[9] = Patient 01-002, by week 12 of the study
[10] = Patient ID 01-002 (FIG. 5), week 0 to week 12, SOFUSA Enbrel 25 mg once weekly
[11] = Patient ID 01-004, SOFUSA Enbrel 25 mg once weekly for 12 weeks
[12] = Patient ID 01-006, SOFUSA Enbrel 25 mg once weekly for 12 weeks
[13] = before SOFUSA dosing, inadequate response to weekly 50 mg Enbrel subcutaneous
[14] = Patient ID 01-002, SOFUSA Enbrel 25 mg once weekly
[15] = Patient ID 01-002, before SOFUSA dosing
[16] = Patient ID 01-002, week 0 to week 12, SOFUSA Enbrel 25 mg once weekly

Substance: etanercept [Enbrel]
- DAS28 (ESR) at week 10 [1]: 2.10
- SJC66 decrease (ACR response section) [2, 9]: 55.6%
- TJC68 decrease (ACR response section) [2, 9]: 58.8%
- decrease in number of swollen joints, 28-Joint Count [2, 10]: 28.6%
- decrease in number of swollen joints, full 66-Joint Count [2, 10]: 44.4%
- decrease in number of tender joints, 28 Joint Count [2, 10]: 90.9%
- decrease in number of tender joints, full 68-Joint Count [2, 10]: 70.6%
- SJC66 decrease [2, 11]: 66.7%
- TJC68 decrease [2, 11]: 60.0%
- SJC66 change [2, 12]: unchanged
- TJC68 decrease [2, 12]: 70.6%
- DAS28 (ESR) at week 12 ([3]; SOFUSA Enbrel 25 mg once weekly, baseline 4.58): 3.02
- DAS28 (CRP) at Week 12 ([3]; SOFUSA Enbrel 25 mg once weekly, baseline 4.99): 3.12
- DAS28 (ESR) decrease from baseline ([3]; SOFUSA Enbrel 25 mg once weekly, week 12 vs baseline 4.58): 34.1%
- DAS28 (CRP) decrease from baseline ([3]; SOFUSA Enbrel 25 mg once weekly, week 12 vs baseline 4.99): 37.5%
- DAS28 (ESR) at Week 10 (lowest achieved) ([3]; after 10 weekly 25 mg SOFUSA Enbrel doses, level of remission): 2.10
- DAS28 (CRP) at baseline [3, 13]: 4.99
- DAS28 (CRP) at screening [3, 13]: 4.94
- DAS28 (ESR) at baseline [3, 13]: 4.58
- DAS28 (ESR) at screening [3, 13]: 4.62
- Patient Assessment of Pain (VAS) decrease (ACR response section) [4, 9]: 69.6%
- Patient Global Assessment of Disease Activity (VAS) decrease (ACR response section) [4, 9]: 63.5%
- Physician Global Assessment of Disease Activity (VAS) decrease (ACR response section) [4, 9]: 50.0%
- Patient Assessment of Pain (VAS) at week 12 [4, 14]: 29 mm
- Patient Global Assessment of Disease Activity (VAS, 100 mm) at week 12 [4, 14]: 21 mm
- Physician Global Assessment of Disease Activity (VAS) at week 12 [4, 14]: 15 mm
- Patient Assessment of Pain (VAS) at week 0 [4, 15]: 46 mm
- Patient Global Assessment of Disease Activity (VAS, 100 mm) at week 0 [4, 15]: 52 mm
- Physician Global Assessment of Disease Activity (VAS) at week 0 [4, 15]: 50 mm
- Patient Assessment of Pain, decrease [4, 16]: 37.0%
- Patient Global Assessment of Disease Activity, overall reduction [4, 16]: 59.6%
- Physician Global Assessment of Disease Activity, decrease [4, 16]: 70.0%
- Patient Assessment of Pain (VAS) decrease ([4]; Patient ID 01-004): 100.0%
- Patient Global Assessment of Disease Activity (VAS) decrease ([4]; Patient ID 01-004): 46.7%
- Physician Global Assessment of Disease Activity (VAS) decrease ([4]; Patient ID 01-004): 85.4%
- Patient Global Assessment of Disease Activity (VAS) decrease at week 10 ([4]; Patient ID 01-004, week 10 of the study): 73.3%
- Patient Assessment of Pain (VAS) decrease ([4]; Patient ID 01-006): 98.9%
- Patient Global Assessment of Disease Activity (VAS) decrease ([4]; Patient ID 01-006): 97.1%
- Physician Global Assessment of Disease Activity (VAS) decrease ([4]; Patient ID 01-006): 75.4%
- efficacy response rate, ACR70 ([5]; Enbrel in combination with MTX, delivered systemically): < 50%
- patients achieving ACR70 ([5]; Enbrel plus MTX, at 3 and 6 months, Enbrel prescribing information): 15%
- lymphatic pump rate at week 0 ([6]; week 0, before SOFUSA treatment, ICG at opposite arm): less than 0.5 pumps per minute
- lymphatic vessels visible by NIRF imaging at week 6 ([6]; week 6, after 6 SOFUSA Enbrel doses, vs week 0 (very few vessels visible)): significantly more lymphatic vessels could be imaged
- lymphatic pump rate at week 6 ([6]; week 6, after 6 SOFUSA Enbrel doses, ICG at opposite arm): greater than 2 pumps per minute
- etanercept concentration in lymph nodes, lymphatic delivery compared to all other tested delivery routes (IV, SC, ID) ([7]; 12 and 36 hours post-administration, FIG. 12): far greater
- etanercept concentration in lymph nodes, lymphatic (Sofusa) vs IV administration ([7]; 12 hours post administration): approximately 40 fold
- etanercept concentration in lymph nodes, lymphatic (Sofusa) vs IV administration ([7]; 36 hours post administration): approximately 9 fold
- ACR 50% response [8]: achieved
